Structures can show the parent of a compound that is named as a salt.
What was measured:
[1] = system: gastric injury induced by ethanol; assay: Gastric ulcers induced by absolute ethanol in rats; type: in vivo, Sprague-Dawley derived male rats; settings: for Average (gastric ulceration score 0-4): 30 min before absolute ethanol 1 ml/rat, scored 1 h later, 5 rats
Description: The purpose of this study was to investigate the effect of MIC31 (Citronellol) and its analogues/derivatives on gastric injury induced by ethanol in the rat. Gastric damage was produced by oral administration of absolute ethanol to rats. The severity of the ethanol-induced gastric damage varied considerably within the vehicle-treated group of rats which served as the negative controls.
Animals studied in this example were Sprague-Dawley derived Male Rats from Yung-Min Medical University Laboratory Animal Center. The age of these rats are 7 weeks old. Each group has 5 rats, and their body weight at arrival was 180±10 gm. Upon arrival, heath status of rats will undergo a minimum of one week acclimation period prior to the start of the experiment. At the first day of study, body weights are measured and the animals are grouped according to experiment design. The environmental conditions are listed below:
(10 ml/kg) to a group of 5 Sprague-Dawley derived male rats overnight fasted weighing 180±10 gm at 30 minutes before absolute ethanol challenge (1 ml/rat, P.O.). One hour later, the animals are sacrificed and the stomachs are opened along the greater curvature. Gastric ulceration is scored for degree of hemorrhage and severity of ulcerative lesions as follows: 0=no hyperemia or lesion […], 1=hyperemia, 2=one or two slight lesions, 3=more than two slight lesions, 4=more than two lesions or severe lesions. Reduction of concurrent control score values by 50 percent or more (≧50%) is considered significant. During the experimental phase, body weight will be documented.

[2] = system: Helicobacter pylori-induced ulcers; assay: Helicobacter pylori-induced gastric ulceration in mice; type: in vivo, male CD-1 (Crl.) derived mice; settings: for Ulceration Score Total: N=5 mice, day 8
Description: MIC-31 (Citronellol) and MIC-32 (Geraniol) were evaluated for their abilities to protect mice from the Helicobacter pylori-induced ulcers. MIC-31 was dosed at 50, 25, 12.5 and 6.25 mg/kg, P.O., as well as at 25 and 12.5 mg/kg, I.P. MIC-32 was dosed at 25 and 12.5 mg/kg, P.O. These dosing regimes were administered twice daily for 7 consecutive days beginning with the first dose given at one hour after Helicobacter pylori inoculation. On day 8, Gastric ulceration was scored as 0, 1, 2 or 3 (3 being most severe relative to vehicle control) according to the degree of hemorrhage and severity of lesions on the gastric mucosa. MIC-31 and MIC-32 were dissolved in 2% Tween 80 for oral (P.O.) and in 2% Tween 80/0.9% NaCl for intraperitoneal (I.P.) administration. MIC-31 at doses of 50, 25, 12.5, 6.25 mg/kg (P.O.) and 25, 12.5 mg/kg (I.P.), as well as MIC-32 at 25 and 12.5 mg/kg (P.O.), were administered to test animals twice daily for 7 consecutive days. The dosing volume was 10 ml/kg. Male CD-1 (Crl.) derived mice weighing 24±2 g were provided. Space allocation for 10 animals was 29×18×13 cm. Mice were housed in cages and maintained in a controlled temperature (22° C.-23° C.) and humidity (70%-80%) environment with 12 hours light dark cycles for at least one week prior to use. Free access to standard lab chow for mice and tap water was granted. Groups of 5 male CD-1 (Crl.) derived mice weighing 24±2 g, were fasted for 18 hours prior to intragastric inoculation of Helicobacter pylori in suspension at 9.5×10^9 CFU/0.4 ml/mouse. […] MIC-31 was also dosed intraperitoneally at 25 mg/kg and 12.5 mg/kg, starting also one hour after the Helicobacter pylori inoculation, twice daily for 7 consecutive days. Omeprazole 1 mg/kg and Clarithromycin 10 mg/kg, in combination, were used as positive controls and administered orally to test animals once daily for 7 consecutive days under the same treatment regime. Eight days after infection, all animals were fasted overnight and sacrificed. Each stomach was dissected along the greater curvature. Gastric ulceration was scored at four levels according to the degree of hemorrhage and severity of ulcerative lesions: 0=normal appearance, 1=mild red spots, 2=moderate red spots and/or hemorrhage spots, 3=marked hemorrhage spots. Reduction of ulceration score by 50 percent or more (≧50%) relative to vehicle control score values is considered significant. In addition, blood of each animal was collected from the retro-orbital sinus on day 8 and plasma sample was kept frozen at −80° C. until returned to the sponsor. Tissues of stomach and intestines were removed by surgical excision and immersed in 10% Neutral-Buffer formalin for histopathological examination.

[3] = 30 mg/kg P.O., 30 min before absolute ethanol, >=50% considered significant
[4] = 100 mg/kg P.O., 30 min before absolute ethanol, >=50% considered significant
[5] = PO 12.5 mg/kg x 2 x 7 days, score 0-3 each
[6] = PO 25 mg/kg x 2 x 7 days, score 0-3 each
[7] = Rattus norvegicus, po, 1 h, 30 mg/kg P.O., 30 min before absolute ethanol, >=50% considered significant, read-out: Reduction (%) of ulceration score vs concurrent vehicle control
[8] = Rattus norvegicus, po, 1 h, 100 mg/kg P.O., 30 min before absolute ethanol, >=50% considered significant, read-out: Reduction (%) of ulceration score vs concurrent vehicle control
[9] = Rattus norvegicus, po, 1 h, 300 mg/kg P.O., 30 min before absolute ethanol, >=50% considered significant, read-out: Reduction (%) of ulceration score vs concurrent vehicle control
[10] = 300 mg/kg P.O., 30 min before absolute ethanol, >=50% considered significant

| Compound | Average (gastric ulceration score 0-4) ([1]; 30 mg/kg P.O.) | Reduction (%) of ulceration score vs concurrent vehicle control [1, 3] | Average (gastric ulceration score 0-4) ([1]; 100 mg/kg P.O.) | Reduction (%) of ulceration score vs concurrent vehicle control [1, 4] | Average (gastric ulceration score 0-4) ([1]; 300 mg/kg P.O.) | inhibition in vivo at 30 mg/kg [1, 7] | inhibition in vivo at 100 mg/kg [1, 8] | inhibition in vivo at 300 mg/kg [1, 9] | further results |
| --- | --- | --- | --- | --- | --- | --- | --- | --- | --- |
| CC(C)=CCCC(C)CCO (stereo not shown) [MIC-31, Citronellol] | 1 | 72% | 0.4 | 89% |  |  |  |  | Protecting effect on stomach after challenge with absolute ethanol (in words) ([1]; single oral dose 30 min before alcohol challenge, rats): can inhibit the severity degree of hemorrhage and ulcerative lesions in stomach; Ulceration Score Total ([2]; IP 12.5 mg/kg x 2 x 7 days): 2; Ulceration Score Total ([2]; IP 25 mg/kg x 2 x 7 days): 8; % Inhibition of ulceration score vs vehicle ([2]; IP 25 mg/kg x 2 x 7 days, >=50% significant): 47%; Ulceration Score Total ([2]; PO 6.25 mg/kg x 2 x 7 days, score 0-3 each): 11; % Inhibition of ulceration score vs vehicle ([2]; PO 6.25 mg/kg x 2 x 7 days, >=50% significant (in parentheses)): 27%; Ulceration Score Total [2, 5]: 7; Ulceration Score Total [2, 6]: 3; Ulceration Score Total ([2]; PO 50 mg/kg x 2 x 7 days, score 0-3 each): 2 |
| CC(C)=CCC/C(C)=C/CO [MIC-32, Geraniol] |  |  |  |  |  |  |  |  | Ulceration Score Total [2, 5]: 13; % Inhibition of ulceration score vs vehicle ([2]; PO 12.5 mg/kg x 2 x 7 days, >=50% significant (in parentheses)): 13%; Ulceration Score Total [2, 6]: 11; % Inhibition of ulceration score vs vehicle ([2]; PO 25 mg/kg x 2 x 7 days, >=50% significant (in parentheses)): 27% |
| CC(C)=CCCC(C)CC(=O)O (stereo not shown) [MIC-35, Citronellic acid] | 2 |  | 1.6, |  | 1.4 | 38% | 50% | 56% |  |
| CC(C)=CCC[C@H](C)CCBr [MIC-36, (s)-(+)-Citronellyl bromide] | 2 |  | 1.4 |  | 1.6 | 33% | 53% | 47% |  |
| CC(C)=CCCC(C)CCOC(=O)C(C)C (stereo not shown) [MIC-38, Citronellyl isobutryrate] | 3.2 | 0% | 1.8 | 40% | 1.2 |  |  |  | Reduction (%) of ulceration score vs concurrent vehicle control [1, 10]: 60% |
| CC(=O)OCCC(C)CCC=C(C)C (stereo not shown) [MIC-39, Citronellyl acetate] | 2.4 |  | 0.8 |  | 0.8 | 20% | 73% | 73% |  |
| CCC(=O)OCCC(C)CCC=C(C)C (stereo not shown) [MIC-40, Citronellyl propionate] | 3.4 |  | 2.8 |  | 1.2 | 6% | 22% | 67% |  |
| CC(C)=CCCC(C)CCOC=O (stereo not shown) [MIC-41, Citronellyl formate] | 3.2 |  | 1 |  | 1.4 | 0% | 69% | 56% |  |
| CC(C)=CCCC(C)CCO (stereo not shown) [MIC-42, Citronellol] | 1.6 | 53% | 0.8 | 76% | 1.6 |  |  |  | Reduction (%) of ulceration score vs concurrent vehicle control [1, 10]: 53% |
| CC(C)=CCC[C@@H](C)CCBr [MIC-43, (R)-(−)-Citronellyl bromide] | 2.4 |  | 1.6 |  | 1.6 | 29% | 53% | 53% |  |
| C/C=C(\C)C(=O)OCCC(C)CCC=C(C)C (stereo not shown) [MIC-44, Citronellyl tiglate] | 2.8 |  | 1.8 |  | 2.2 | 22% | 50% | 39% |  |
| CC(C)=CCCC(C)CCO (stereo not drawn) [MIC-45, (−)-β-Citronellol] | 2.6 | 28% | 1.2 | 67% | 1.6 |  |  |  | Reduction (%) of ulceration score vs concurrent vehicle control [1, 10]: 83% |
| COc1ccc2[nH]c([S+]([O-])Cc3ncc(C)c(OC)c3C)nc2c1 (stereo not shown) [Omeprazole, reference compound] |  |  |  |  |  |  |  |  | Average (gastric ulceration score 0-4) ([1]; 50 mg/kg P.O.): 2.2; inhibition in vivo at 50 mg/kg ([1]; Rattus norvegicus, po, 1 h, 50 mg/kg P.O., 30 min before absolute ethanol, >=50% considered significant, read-out: Reduction (%) of ulceration score vs concurrent vehicle control): 39% |

From patent publication US20080145409A1, “COMPOSITION FOR THE TREATMENT AND PREVENTION OF PEPTIC ULCER” (priority 2006, published 2008)
